Source: patent US6417211B1, “Isothiazolone concentrates” (Rohm and Haas Company, priority 1999, dated 2002)
Marks after values point to notes of the source that are not given here.

Legend:
[1] = Chemical stability of MI solutions on storage (HPLC, % active ingredient remaining); format: physicochemical; settings: ± 1-2%
[2] = Physical stability of MI solutions on storage (homogeneity, clarity, crystallization, precipitation, phase separation); format: physicochemical
Procedure: By “physically stable” we mean that the compositions are homogeneous and fluid at temperatures of 20 to 25° C. for at least 24 hours. Preferably the compositions are physically stable at 20° C. and below for at least 3 days, more preferably for at least 2 weeks, and most preferably for at least 4 weeks. In addition, it is desirable that the compositions retain their physical stability for similar time periods at temperatures of 15° C. and below, and preferably at 5° C. and below.
Samples of technical grade 2-methyl-3-isothiazolone (MI) were used to prepare solutions of the NHITA in various solvents at different concentrations. […] Solutions were prepared by adding a weighed amount of molten MI (melted at about 55° C.) to a weighed amount of deionized water (or a solvent or a solvent-water mixture) in a 20-milliliter (ml) vial; the mixture was swirled and allowed to cool to room temperature. The prepared samples were allowed to stand at room temperature (20-25° C.) for 24 hours and then subjected to storage at cooler temperatures (5° C. and −17° C.) for at least 72 hours; observations were made at each condition to determine physical stability (homogeneity, clarity, crystallization, precipitation, phase separation). The samples were considered physically stable if no crystallization, phase separation or precipitation occurred; concentrations (or concentration ranges) at which the compositions were unstable are indicated by ** superscript, otherwise concentrations (ranges) listed were stable; results are summarized in Table I (concentrations are weight % MI).

[3] = solvent DEC (diethyl carbonate), 20-25° C., 24 hours
[4] = solvent DME (1,2-dimethoxyethane), 20-25° C., 24 hours
[5] = solvent DMSO, 20-25° C., 24 hours
[6] = solvent IPA (isopropanol), 5° C., at least 72 hours
[7] = solvent MeOH, 5° C., at least 72 hours
[8] = solvent PC (propylene carbonate), 20-25° C., 24 hours
[9] = solvent PG (propylene glycol), 5° C., at least 72 hours
[10] = solvent Water, 5° C., at least 72 hours
[11] = solvent Water, 20-25° C., 24 hours
[12] = solvent Water, −17° C., at least 72 hours

Cn1sccc1=O [MI, 2-Methyl-3-isothiazolone]
% Active Ingredient (MI) Remaining ([1]; initial MI concentration 68, PG, 40° C./11 days): 100%
% Active Ingredient (MI) Remaining ([1]; initial MI concentration 78, MeOH, 40° C./11 days): 104%
% Active Ingredient (MI) Remaining ([1]; initial MI concentration 85.8, Water, 55° C./4 weeks): 97.1%
% Active Ingredient (MI) Remaining ([1]; initial MI concentration 88, 50/50 MeOH/Water, 40° C./11 days): 101%
time solution remained stable ([2]; 80% MI solution in water, 5° C.): at least 4 months
time solution remained stable ([2]; 90% MI solution in water, 5° C.): at least 4 months
MI concentration physically stable ([2]; solvent 50/50 MeOH/Water, 5° C., at least 72 hours): 88 weight %
MI concentration physically stable ([2]; solvent 50/50 MeOH/Water, 20-25° C., 24 hours): 88 weight %
MI concentration physically unstable (crystal formation or insoluble) ([2]; solvent 50/50 MeOH/Water, −17° C., at least 72 hours): 88** weight %
MI concentration physically unstable (crystal formation or insoluble) ([2]; solvent BEE (2-(2-butoxyethoxyl)ethanol), 5° C., at least 72 hours): 68-88** weight %
MI concentration physically stable ([2]; solvent BEE (2-(2-butoxyethoxyl)ethanol), 20-25° C., 24 hours): 68-88 weight %
MI concentration physically unstable (crystal formation or insoluble) ([2]; solvent DEC (diethyl carbonate), 5° C., at least 72 hours): 70** weight %
MI concentration physically stable [2, 3]: 70 weight %
MI concentration physically unstable (crystal formation or insoluble) [2, 3]: 80-90 weight %
MI concentration physically unstable (crystal formation or insoluble) ([2]; solvent DME (1,2-dimethoxyethane), 5° C., at least 72 hours): 70-80** weight %
MI concentration physically stable [2, 4]: 70-80 weight %
MI concentration physically unstable (crystal formation or insoluble) [2, 4]: 90 weight %
MI concentration physically unstable (crystal formation or insoluble) ([2]; solvent DMSO, 5° C., at least 72 hours): 70-80** weight %
MI concentration physically stable [2, 5]: 70-80 weight %
MI concentration physically unstable (crystal formation or insoluble) [2, 5]: 90 weight %
MI concentration physically unstable (crystal formation or insoluble) ([2]; solvent DPG (dipropylene glycol), 5° C., at least 72 hours): 75-90** weight %
MI concentration physically stable ([2]; solvent DPG (dipropylene glycol), 20-25° C., 24 hours): 75-90 weight %
MI concentration physically stable [2, 6]: 78 weight %
MI concentration physically unstable (crystal formation or insoluble) [2, 6]: 88 weight %
MI concentration physically stable ([2]; solvent IPA (isopropanol), 20-25° C., 24 hours): 78-88 weight %
MI concentration physically unstable (crystal formation or insoluble) ([2]; solvent IPA (isopropanol), −17° C., at least 72 hours): 78** weight %
MI concentration physically stable [2, 7]: 78 weight %
MI concentration physically unstable (crystal formation or insoluble) [2, 7]: 88 weight %
MI concentration physically stable ([2]; solvent MeOH, 20-25° C., 24 hours): 78-88 weight %
MI concentration physically stable ([2]; solvent MeOH, −17° C., at least 72 hours): 78 weight %
MI concentration physically unstable (crystal formation or insoluble) ([2]; solvent PC (propylene carbonate), 5° C., at least 72 hours): 69** weight %
MI concentration physically stable [2, 8]: 69 weight %
MI concentration physically unstable (crystal formation or insoluble) [2, 8]: 80-90 weight %
MI concentration physically stable [2, 9]: 68 weight %
MI concentration physically unstable (crystal formation or insoluble) [2, 9]: 78-88 weight %
MI concentration physically stable ([2]; solvent PG (propylene glycol), 20-25° C., 24 hours): 68-88 weight %
MI concentration physically stable ([2]; solvent PG (propylene glycol), −17° C., at least 72 hours): 68 weight %
MI concentration physically stable [2, 10]: 60-89.5 weight %
MI concentration physically unstable (crystal formation or insoluble) [2, 10]: 90.5 weight %
MI concentration physically stable [2, 11]: 60-94.4 weight %
MI concentration physically unstable (crystal formation or insoluble) [2, 11]: 95.4 weight %
MI concentration physically stable [2, 12]: 70-77 weight %
MI concentration physically unstable (crystal formation or insoluble) [2, 12]: 88 weight %
MI concentration physically stable ([2]; solvent φCH2OH (benzyl alcohol), 5° C., at least 72 hours): 60 weight %
MI concentration physically stable ([2]; solvent φCH2OH (benzyl alcohol), 20-25° C., 24 hours): 60 weight %
MI concentration physically unstable (crystal formation or insoluble) ([2]; solvent φCH2OH (benzyl alcohol), −17° C., at least 72 hours): 60** weight %
MI concentration physically stable ([2]; solvent φOCH2CH2OH (phenoxyethanol), 5° C., at least 72 hours): 60 weight %
MI concentration physically stable ([2]; solvent φOCH2CH2OH (phenoxyethanol), 20-25° C., 24 hours): 60 weight %
MI concentration physically unstable (crystal formation or insoluble) ([2]; solvent φOCH2CH2OH (phenoxyethanol), −17° C., at least 72 hours): 60** weight %
